Experimental data as given in patent US6395782B1, “Method of increasing longevity and preventing body weight wasting in autoimmune disease by using conjugated linoleic acid” (Wisconsin Alumni Research Foundation, priority 2001, dated 2002).

Columns and labels:
[1] = test system: NZB/W F1 mice; test: CLA diet given after onset of proteinuria in NZB/W F1 mice (SLE model): survival and body weight; type: in vivo; settings: p<0.05
Description: Materials. Conjugated linoleic acid (Natural Lipids Inc, Hovdebygda, Norway) contained 90% CLA (CLA-90) with the following C18:2 isomer distribution: 43.5% t10,c12, 41.9% c9,t11 and t9,c11, 1.5% t9,t11 and t10,t12, 0.9% c9,c11, 0.9% c10,c12. Other fatty acids in CLA-90 were 5.6% oleate, 1.4% palmitate, 0.5% linoleate, 0.4% stearate, and 3.4% unidentified compounds. All other chemicals and reagents were purchased from Sigma Chemical Co. (St. Louis, Mo.) unless specified.
Diet. Semi-purified powdered diet (TD94060, 99% basal mix, Harlan-Teklad, Madison, Wis.) was mixed with 0.5% oil (either CLA or corn oil) and 0.5% sucrose by weight, such that the final diet contained either 5.5% corn oil (control group) or 5% corn oil plus 0.5% CLA (CLA group) (Park Y et al., Lipids 32, 853 (1997)). […]
Animals. […] Once proteinuria was detected the mice were assigned either the control diet or 0.5% conjugated linoleic acid for the remainder of their life. […]
Feed Intake and Body Weight. Weekly body weight and survival of the mice were recorded from the beginning of the experiment to the time of death.
Urine Collection and Proteinuria Assay. […] Plates were mildly shaken for 5 min and the color reactions were read at 600 nm with a microtiter plate reader (Autoreader EL310, Bio-tek Instrument). […]
Statistical Analysis. […] Positive proteinuria ratio was analyzed by Fisher's exact test using a SAS computer program version 5.

[2] = test system: SLE patients and rodent models; test: Comparison of CLA with n-3 fatty acids in SLE patients and rodent models; type: in vivo; settings: CLA vs n-3 fatty acids
Description: Effects similar to those observed by the applicants can be observed using n-3 fatty acids in SLE patients and rodent models (Fernandes, G., et al., J. Immunol. 152:5979 (1994)). […] To have similar effects of 0.5% diet CLA, as described below, n-3 fatty acids would have to make up about 10% of the diet.

[3] = test system: NZB/W F1 mice; settings: dietary CLA fed from weaning onward; cited from earlier work

Conjugated linoleic acid [CLA]
prolonging of life span (lived longer than control diet) ([1]; 0.5% CLA in diet from detection of proteinuria (1 mg protein/ml urine) until death, vs 5.5% corn oil control diet, female NZB/W F1 mice): 55% | reduction of body weight wasting (control lost more body weight than CLA diet) ([1]; 0.5% CLA in diet from detection of proteinuria until death, vs control diet, NZB/W F1 mice): 35% | effectiveness relative to n-3 fatty acids in comparable methods [2]: about 20 times | anti-DNA antibody production [3]: does not significantly affect | body weight loss vs control mice [3]: lost less body weight | onset of proteinuria [3]: accelerates the onset of proteinuria | survival from the onset of proteinuria vs control mice [3]: lived longer | total lifespan vs control animals [3]: did not differ
